# Assay results reported in PubChem BioAssay AID1259407 (Chemical Carcinogenesis Research Information System (CCRIS), 2018).
# Active and inactive are the calls of the source. No rule for the calls is given here.
# Test system: CCRIS mutagenicity, Ames/micronucleus/aberration tests
# Test: CCRIS mutagenicity studies
# [1] = Test System: AMES SALMONELLA TYPHIMURIUM, Strain/Indicator: TA100, Metabolic Activation: NONE, Method: PREINCUBATION
# [2] = Test System: AMES SALMONELLA TYPHIMURIUM, Strain/Indicator: TA100, Metabolic Activation: NONE, Method: STANDARD PLATE
# [3] = Test System: AMES SALMONELLA TYPHIMURIUM, Strain/Indicator: TA1535, Metabolic Activation: NONE, Method: PREINCUBATION
# [4] = Test System: AMES SALMONELLA TYPHIMURIUM, Strain/Indicator: TA1535, Metabolic Activation: NONE, Method: STANDARD PLATE
# [5] = Test System: AMES SALMONELLA TYPHIMURIUM, Strain/Indicator: TA98, Metabolic Activation: NONE, Method: STANDARD PLATE
# [6] = Test System: AMES SALMONELLA TYPHIMURIUM, Strain/Indicator: TA98, Metabolic Activation: RAT, LIVER, S-9, AROCLOR 1254, Method: STANDARD PLATE
# [7] = Test System: AMES SALMONELLA TYPHIMURIUM, Strain/Indicator: TA100, Metabolic Activation: RAT, LIVER, S-9, AROCLOR 1254, Method: STANDARD PLATE
# [8] = Test System: AMES SALMONELLA TYPHIMURIUM, Strain/Indicator: TA102, Metabolic Activation: NONE, Method: STANDARD PLATE
# [9] = Test System: AMES SALMONELLA TYPHIMURIUM, Strain/Indicator: TA102, Metabolic Activation: RAT, LIVER, S-9, AROCLOR 1254, Method: STANDARD PLATE
smiles,measurement,setting,value
CC(C)(c1ccc(OCC2CO2)cc1)c1ccc(OCC2CO2)cc1 (centres undefined),mutagenic call,"Test System: AMES SALMONELLA TYPHIMURIUM, Strain/Indicator: TA100, Metabolic Activation: HAMSTER, LIVER, S-9, AROCLOR 1254 (10%), Method: PREINCUBATION",active; positive
same,mutagenic call,[1],active; positive
same,mutagenic call,[2],active; positive
same,mutagenic call,"Test System: AMES SALMONELLA TYPHIMURIUM, Strain/Indicator: TA100, Metabolic Activation: RAT LIVER S-9, PHENOBARBITAL/METHYLCHOLANTHRENE (2 OR 10%), Method: STANDARD PLATE",active; positive
same,mutagenic call,"Test System: AMES SALMONELLA TYPHIMURIUM, Strain/Indicator: TA100, Metabolic Activation: RAT LIVER S-9, PHENOBARBITAL/METHYLCHOLANTHRENE (4%), Method: STANDARD PLATE",active; positive
same,mutagenic call,"Test System: AMES SALMONELLA TYPHIMURIUM, Strain/Indicator: TA100, Metabolic Activation: RAT, LIVER, S-9, AROCLOR 1254 (10%), Method: PREINCUBATION",active; positive
same,mutagenic call,"Test System: AMES SALMONELLA TYPHIMURIUM, Strain/Indicator: TA1535, Metabolic Activation: HAMSTER, LIVER, S-9, AROCLOR 1254 (10%), Method: PREINCUBATION",active; positive
same,mutagenic call,[3],active; positive
same,mutagenic call,[4],inactive; negative
same,mutagenic call,"Test System: AMES SALMONELLA TYPHIMURIUM, Strain/Indicator: TA1535, Metabolic Activation: RAT LIVER S-9, PHENOBARBITAL/METHYLCHOLANTHRENE (4, 10 OR 20%), Method: STANDARD PLATE",active; positive
same,mutagenic call,"Test System: AMES SALMONELLA TYPHIMURIUM, Strain/Indicator: TA1535, Metabolic Activation: RAT, LIVER, S-9, AROCLOR 1254 (10%), Method: PREINCUBATION",active; positive
same,mutagenic call,"Test System: E. coli, Strain/Indicator: IC3327, Metabolic Activation: None, Method: Standard Plate",active; positive
same,mutagenic call,"Test System: E. coli, Strain/Indicator: IC3327, Metabolic Activation: Rat, Liver, S-9, Phenobarbital-methylcholanthrene mix (4%) + 4 mM NADP, Method: Standard Plate",active; positive
same,mutagenic call,"Test System: E. coli, Strain/Indicator: IC3327, Metabolic Activation: Rat, Liver, S-9, Phenobarbital-methylcholanthrene mix (4%), Method: Standard Plate",active; positive
same,mutagenic call,"Test System: E. coli, Strain/Indicator: WP2 UVRA, Metabolic Activation: None, Method: Standard Plate",active; positive
same,mutagenic call,"Test System: E. coli, Strain/Indicator: WP2 UVRA, Metabolic Activation: Rat, Liver, S-9, Phenobarbital-methylcholanthrene mix (4%) + 4 mM NADP, Method: Standard Plate",inactive; negative (authors report as positive based on slope but revertants <2x backgroun
same,mutagenic call,"Test System: E. coli, Strain/Indicator: WP2 UVRA, Metabolic Activation: Rat, Liver, S-9, Phenobarbital-methylcholanthrene mix (4%), Method: Standard Plate",active; positive
Cc1n[nH]c(=O)[nH]c1=O,mutagenic call,"Test System: AMES SALMONELLA TYPHIMURIUM, Strain/Indicator: TA98, Metabolic Activation: MAIZE SEEDLING, S-14, Method: PREINCUBATION",inactive; negative
same,mutagenic call,"Test System: AMES SALMONELLA TYPHIMURIUM, Strain/Indicator: TA98, Metabolic Activation: MOUSE, LIVER, S-9, Method: PREINCUBATION",inactive; negative
same,mutagenic call,"Test System: AMES SALMONELLA TYPHIMURIUM, Strain/Indicator: TA98, Metabolic Activation: NONE, Method: PREINCUBATION",inactive; negative
same,mutagenic call,"Test System: AMES SALMONELLA TYPHIMURIUM, Strain/Indicator: TA100, Metabolic Activation: MAIZE SEEDLING, S-14, Method: PREINCUBATION",inactive; negative
same,mutagenic call,"Test System: AMES SALMONELLA TYPHIMURIUM, Strain/Indicator: TA100, Metabolic Activation: MOUSE, LIVER, S-9, Method: PREINCUBATION",inactive; negative
same,mutagenic call,[1],inactive; negative
same,mutagenic call,[3],inactive; negative
same,mutagenic call,"Test System: AMES SALMONELLA TYPHIMURIUM, Strain/Indicator: TA1537, Metabolic Activation: NONE, Method: PREINCUBATION",inactive; negative
same,mutagenic call,"Test System: AMES SALMONELLA TYPHIMURIUM, Strain/Indicator: TA1538, Metabolic Activation: NONE, Method: PREINCUBATION",inactive; negative
O=C(/C=C/c1ccc(Br)cc1)c1ccccc1,mutagenic call,[5],inactive; negative
same,mutagenic call,[6],inactive; negative
same,mutagenic call,[2],inactive; negative
same,mutagenic call,[7],inactive; negative
C[C@H](N)C(=O)c1ccccc1,mutagenic call,"End Point: In vivo chromosomal aberrations, Test System: Blood from cardiac puncture, Species: Rat, Strain/Sex: Sprague-Dawley/Male, Route: Oral",active; positive (high dose significantly different from control and low dose)
CCCCOCC=O,mutagenic call,"Test System: AMES SALMONELLA TYPHIMURIUM, Strain/Indicator: TA97A, Metabolic Activation: NONE, Method: STANDARD PLATE",inactive; negative
same,mutagenic call,"Test System: AMES SALMONELLA TYPHIMURIUM, Strain/Indicator: TA97A, Metabolic Activation: RAT, LIVER, S-9, AROCLOR 1254, Method: STANDARD PLATE",inactive; negative
same,mutagenic call,[5],inactive; negative
same,mutagenic call,[6],inactive; negative
same,mutagenic call,[2],inactive; negative
same,mutagenic call,[7],inactive; negative
same,mutagenic call,[8],inactive; negative
same,mutagenic call,[9],inactive; negative
same,mutagenic call,"Test System: CHINESE HAMSTER OVARY, Strain/Indicator: CHO-AS52/6-THIOGUANINE, Metabolic Activation: NONE",inactive; negative
same,mutagenic call,"Test System: CHINESE HAMSTER V-79, Strain/Indicator: V-79 (HPRT)/6-THIOGUANINE, Metabolic Activation: NONE",active; positive
C[N+]1(C)CCOCC1,mutagenic call,"Test System: AMES SALMONELLA TYPHIMURIUM, Strain/Indicator: TA97, Metabolic Activation: NONE, Method: STANDARD PLATE",inactive; negative
same,mutagenic call,"Test System: AMES SALMONELLA TYPHIMURIUM, Strain/Indicator: TA97, Metabolic Activation: RAT, LIVER, S-9, AROCLOR 1254, Method: STANDARD PLATE",inactive; negative
same,mutagenic call,[5],inactive; negative
same,mutagenic call,[6],inactive; negative
same,mutagenic call,[2],inactive; negative
same,mutagenic call,[7],inactive; negative
same,mutagenic call,[8],inactive; negative
same,mutagenic call,[9],inactive; negative
same,mutagenic call,"Test System: AMES SALMONELLA TYPHIMURIUM, Strain/Indicator: TA104, Metabolic Activation: NONE, Method: STANDARD PLATE",inactive; negative
same,mutagenic call,"Test System: AMES SALMONELLA TYPHIMURIUM, Strain/Indicator: TA104, Metabolic Activation: RAT, LIVER, S-9, AROCLOR 1254, Method: STANDARD PLATE",inactive; negative
same,mutagenic call,[4],inactive; negative
same,mutagenic call,"Test System: AMES SALMONELLA TYPHIMURIUM, Strain/Indicator: TA1535, Metabolic Activation: RAT, LIVER, S-9, AROCLOR 1254, Method: STANDARD PLATE",inactive; negative
same,mutagenic call,"Test System: AMES SALMONELLA TYPHIMURIUM, Strain/Indicator: TA1537, Metabolic Activation: NONE, Method: STANDARD PLATE",inactive; negative
same,mutagenic call,"Test System: AMES SALMONELLA TYPHIMURIUM, Strain/Indicator: TA1537, Metabolic Activation: RAT, LIVER, S-9, AROCLOR 1254, Method: STANDARD PLATE",inactive; negative
same,mutagenic call,"Test System: AMES SALMONELLA TYPHIMURIUM, Strain/Indicator: TA1538, Metabolic Activation: NONE, Method: STANDARD PLATE",inactive; negative
same,mutagenic call,"Test System: AMES SALMONELLA TYPHIMURIUM, Strain/Indicator: TA1538, Metabolic Activation: RAT, LIVER, S-9, AROCLOR 1254, Method: STANDARD PLATE",inactive; negative
NC(Cc1ccccc1)C(=O)O (centres undefined),mutagenic call,"Test System: AMES SALMONELLA TYPHIMURIUM, Strain/Indicator: TA98, Metabolic Activation: RAT LIVER S-9, CHLOROPHENE, Method: STANDARD PLATE (COMPOUND HEATED AT 250 DEGREES CELSIUS FOR 20 MIN)",inactive; negative
C[C@H](CCC(=O)NCC(=O)O)[C@H]1CC[C@H]2[C@@H]3[C@@H](O)C[C@@H]4C[C@H](O)CC[C@]4(C)[C@H]3CC[C@]12C,mutagenic call,"Test System: Ames Salmonella typhimurium, Strain/Indicator: TA98, Metabolic Activation: Rat, Liver, S-9, Aroclor 1254, Method: Plate incorporation",inactive; negative
